From patent publication US11492346B2, “Benzisoxazole sulfonamide derivatives” (Pfizer Inc., priority 2019, dated 2022) come the findings set out here.

Assay [1] has as its system histone H3K23 acetylation in U2OS cells. Put plainly: Histone H3 Lysine 23 Acetylation Biomarker Assay. The assay is classed as cell-based. Conditions: Homo sapiens, 24 hours incubation. On the procedure: Compounds were tested for their ability to inhibit acetylation of the histone H3K23 marker in the following assay:
The cell line U2OS was seeded at a density of 9,000 cells per well in 96 well optical quality tissue culture plates in RPMI medium and 10% foetal bovine serum, and allowed to adhere for 24 hours under standard culture conditions (37 degree Celsius, 5% CO2). At the end of this period the medium was aspirated. […] After incubation for 24 hours, the cells were fixed with 3.7% formaldehyde in PBS for 20 minutes at room temperature, washed (5×5 minutes) with phosphate buffer saline containing 0.1% Tween 20 and blocked with Odyssey blocking buffer (LI-COR, Lincoln, Nebr.) containing 0.1% TritonX100. Anti-H3K23ac specific antibody (Abcam ab177275) in Odyssey blocking buffer containing 0.1% Tween 20 was added and incubated for 16 hours at 4 degree Celsius. After washing (as above), a secondary antibody labelled with Alexa647 dye (LifeTechnologies) and Hoechst 33342 (1 μg/mL, SigmaAldrich) were added for 1 hour incubation. Plates were washed as previously and read on a PerkinElmer Phenix high content imaging platform. Using a Columbus image analysis pipeline, individual nuclei were located by Hoechst 33342 stain and the acetylation level was calculated from the Alexa647-related intensity in the same area.

The next assay concerns the target HBO1-KAT7 (Homo sapiens (Human), UniProt O95251). Put plainly: biochemical.
Assay [2] has as its system histone H2A.Z Lysine 7 acetylation in U2OS cells. Put plainly: H2A.Z Lysine 7 Acetylation Biomarker Assay. In kind it is cell-based. Conditions: Homo sapiens, serum free medium, 24 hours incubation. On the procedure:
Compounds were tested for their ability to inhibit the histone H2A.Z Lysine 7 acetylation marker in the following assay: The cell line U2OS was seeded at a density of 3,000 cells per well in 384-well optical quality tissue culture plates in RPMI medium supplemented with 10% foetal bovine serum and 10 mM Hepes. The cells were allowed to adhere for 24 hours under standard culture conditions (37 degree Celsius, 5% CO2). At the end of this period the cells were washed with serum free medium. […] 2018, at 30 μM concentration. After incubation for 24 hours, the cells were fixed with 4% formaldehyde in PBS for 15 minutes at room temperature, washed with phosphate buffer saline and blocked with blocking buffer containing 0.2% TritonX100 and 2% BSA. Anti-H2A.ZK7ac specific antibody (Abcam) in blocking buffer was added and incubated overnight at 4 degree Celsius. After washing, a secondary antibody labelled with AlexaFluor 488 dye (ThermoFisher) and Hoechst 33342 (1 μg/mL, Life Technologies) were added for 2 hours incubation at room temperature. Plates were washed and read on a PerkinElmer Opera HCS high content imaging platform. Using a Columbus image analysis pipeline, individual nuclei were located by Hoechst 33342 stain and the acetylation level was calculated from the AlexaFluor 488-related intensity in the same area.

A further assay has as its target KAT8 (Homo sapiens (Human), UniProt Q9H7Z6). Put plainly: KAT assay (SAMDI mass spectrometry), KAT8. The assay is classed as biochemical.
A further assay has as its target TIP60-KAT5 (Homo sapiens (Human), UniProt Q92993). Put plainly: biochemical.
The next assay deals with KAT7 (Homo sapiens (Human), UniProt O95251). Put plainly: KAT assay (SAMDI mass spectrometry), KAT7.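 Further: Baculovirus-expressed enzyme acetylating a histone peptide at room temperature, percent conversion from product and substrate peak areas, Ki from a Morrison tight-binding competitive fit.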 In kind it is biochemical.
Chain of KAT7 (O95251 whole entry): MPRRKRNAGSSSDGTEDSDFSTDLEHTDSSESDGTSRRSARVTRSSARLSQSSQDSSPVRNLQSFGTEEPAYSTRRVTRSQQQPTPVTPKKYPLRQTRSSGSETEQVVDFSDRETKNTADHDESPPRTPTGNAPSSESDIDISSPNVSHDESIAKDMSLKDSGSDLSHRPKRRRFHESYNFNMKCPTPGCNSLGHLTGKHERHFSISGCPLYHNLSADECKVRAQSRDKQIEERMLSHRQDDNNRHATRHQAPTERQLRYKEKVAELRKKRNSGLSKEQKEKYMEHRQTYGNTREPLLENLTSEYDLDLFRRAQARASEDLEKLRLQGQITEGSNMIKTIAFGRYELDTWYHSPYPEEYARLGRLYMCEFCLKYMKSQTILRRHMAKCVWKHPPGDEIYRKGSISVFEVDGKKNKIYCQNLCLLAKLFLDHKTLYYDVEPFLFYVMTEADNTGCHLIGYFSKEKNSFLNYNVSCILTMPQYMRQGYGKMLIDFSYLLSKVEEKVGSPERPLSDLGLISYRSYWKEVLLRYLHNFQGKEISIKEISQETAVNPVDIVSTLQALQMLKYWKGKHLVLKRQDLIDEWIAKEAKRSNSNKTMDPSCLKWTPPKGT
A further assay addresses KAT5 (Homo sapiens (Human), UniProt Q92993). Put plainly: KAT assay (SAMDI mass spectrometry), KAT5.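 Further: Baculovirus-expressed KAT5 acetylating a histone H4 peptide at room temperature, read as percent conversion to product, Ki from a Morrison tight-binding competitive fit.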 In kind it is biochemical.
The test system of assay [3] is histone H3 Lysine 14 acetylation in U2OS cells. Put plainly: Histone H3 Lysine 14 Acetylation Biomarker Assay. Particulars: Homo sapiens, serum free medium, 24 hours incubation. The assay is classed as cell-based. On the procedure: Compounds were tested for their ability to inhibit acetylation of the histone H3 Lysine 14 marker in the following assay:
The cell line U2OS was seeded at a density of 3,000 cells per well in 384-well optical quality tissue culture plates in RPMI medium supplemented with 10% foetal bovine serum and 10 mM Hepes. The cells were allowed to adhere for 24 hours under standard culture conditions (37 degree Celsius, 5% CO2). At the end of this period the cells were washed with serum free medium. […] After incubation for 24 hours, the cells were fixed with 4% formaldehyde in PBS for 15 minutes at room temperature, washed with phosphate buffer saline and blocked with blocking buffer containing 0.2% TritonX100 and 2% BSA. Anti-H3K14ac specific antibody (Cell Signalling Technologies) in blocking buffer was added and incubated overnight at 4 degree Celsius. After washing, a secondary antibody labelled with AlexaFluor 488 dye (ThermoFisher) and Hoechst 33342 (1 μg/mL, Life Technologies) were added for 2 hours incubation at room temperature. Plates were washed and read on a PerkinElmer Opera HCS high content imaging platform. Using a Columbus image analysis pipeline, individual nuclei were located by Hoechst 33342 stain and the acetylation level was calculated from the AlexaFluor 488-related intensity in the same area.

Another assay addresses MOZ-KAT6A (Homo sapiens (Human), UniProt Q92794). Put plainly: biochemical.
The next assay addresses KAT6A (Homo sapiens (Human), UniProt Q92794). Put plainly: KAT assay (SAMDI mass spectrometry), KAT6A.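 Further: Baculovirus-expressed KAT6A acetylating histone H3 (1-21) peptide (2 µM), 30-60 min at room temperature, % product conversion fitted to Morrison equation for tight-binding competitive inhibitors.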 In kind it is biochemical.
The next assay addresses KAT6B (Homo sapiens (Human), UniProt Q8WYB5). Put plainly: KAT assay (SAMDI mass spectrometry), KAT6B. In kind it is biochemical.
Where [4] appears, read: KAT6a Ki at 1 μM AcCoA, 1 μM AcCoA.
Where [5] appears, read: read-out: KAT8 Ki at 1 μM AcCoA.
[6] abbreviates: read-out: KAT7 Ki at 1 μM AcCoA.
Setting [7] is: read-out: KAT5 Ki at 1 μM AcCoA.
Where [8] appears, read: read-out: KAT6a Ki at 1 μM AcCoA, 1 μM AcCoA.
[9] abbreviates: read-out: KAT6a Ki at 10 μM AcCoA, 10 μM AcCoA.
[10] abbreviates: 25 μM AcCoA, read-out: KAT6b Ki at 25 μM AcCoA.
The mark [11] stands for this setting: read-out: KAT6b Ki at 1 μM AcCoA, 1 μM AcCoA.

Read-outs that look alike come from different tables or passages of the source.

Chain of KAT8 (Q9H7Z6 whole entry): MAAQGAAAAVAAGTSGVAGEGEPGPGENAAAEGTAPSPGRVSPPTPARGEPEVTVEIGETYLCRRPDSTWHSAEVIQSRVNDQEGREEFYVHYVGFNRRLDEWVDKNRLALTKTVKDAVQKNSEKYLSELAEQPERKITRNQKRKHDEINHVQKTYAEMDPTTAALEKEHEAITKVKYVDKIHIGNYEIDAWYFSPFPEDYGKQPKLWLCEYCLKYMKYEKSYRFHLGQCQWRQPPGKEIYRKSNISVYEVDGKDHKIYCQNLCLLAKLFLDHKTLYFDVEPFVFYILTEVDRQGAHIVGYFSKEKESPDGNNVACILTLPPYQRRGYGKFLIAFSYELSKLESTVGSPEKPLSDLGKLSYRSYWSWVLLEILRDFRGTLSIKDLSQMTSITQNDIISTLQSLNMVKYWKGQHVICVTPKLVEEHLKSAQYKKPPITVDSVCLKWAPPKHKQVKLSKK
Chain of HBO1-KAT7 (O95251 other isoform, or with tags, fused parts or gaps): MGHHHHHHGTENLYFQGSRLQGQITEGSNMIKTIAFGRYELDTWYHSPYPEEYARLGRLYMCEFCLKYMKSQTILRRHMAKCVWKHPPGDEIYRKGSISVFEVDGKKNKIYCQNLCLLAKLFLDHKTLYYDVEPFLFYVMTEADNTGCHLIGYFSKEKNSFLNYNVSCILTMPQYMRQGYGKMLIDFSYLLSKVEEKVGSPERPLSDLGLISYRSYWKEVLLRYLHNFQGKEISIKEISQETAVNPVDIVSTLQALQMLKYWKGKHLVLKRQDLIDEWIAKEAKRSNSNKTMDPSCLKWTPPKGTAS
Chain of KAT6B (Q8WYB5 whole entry): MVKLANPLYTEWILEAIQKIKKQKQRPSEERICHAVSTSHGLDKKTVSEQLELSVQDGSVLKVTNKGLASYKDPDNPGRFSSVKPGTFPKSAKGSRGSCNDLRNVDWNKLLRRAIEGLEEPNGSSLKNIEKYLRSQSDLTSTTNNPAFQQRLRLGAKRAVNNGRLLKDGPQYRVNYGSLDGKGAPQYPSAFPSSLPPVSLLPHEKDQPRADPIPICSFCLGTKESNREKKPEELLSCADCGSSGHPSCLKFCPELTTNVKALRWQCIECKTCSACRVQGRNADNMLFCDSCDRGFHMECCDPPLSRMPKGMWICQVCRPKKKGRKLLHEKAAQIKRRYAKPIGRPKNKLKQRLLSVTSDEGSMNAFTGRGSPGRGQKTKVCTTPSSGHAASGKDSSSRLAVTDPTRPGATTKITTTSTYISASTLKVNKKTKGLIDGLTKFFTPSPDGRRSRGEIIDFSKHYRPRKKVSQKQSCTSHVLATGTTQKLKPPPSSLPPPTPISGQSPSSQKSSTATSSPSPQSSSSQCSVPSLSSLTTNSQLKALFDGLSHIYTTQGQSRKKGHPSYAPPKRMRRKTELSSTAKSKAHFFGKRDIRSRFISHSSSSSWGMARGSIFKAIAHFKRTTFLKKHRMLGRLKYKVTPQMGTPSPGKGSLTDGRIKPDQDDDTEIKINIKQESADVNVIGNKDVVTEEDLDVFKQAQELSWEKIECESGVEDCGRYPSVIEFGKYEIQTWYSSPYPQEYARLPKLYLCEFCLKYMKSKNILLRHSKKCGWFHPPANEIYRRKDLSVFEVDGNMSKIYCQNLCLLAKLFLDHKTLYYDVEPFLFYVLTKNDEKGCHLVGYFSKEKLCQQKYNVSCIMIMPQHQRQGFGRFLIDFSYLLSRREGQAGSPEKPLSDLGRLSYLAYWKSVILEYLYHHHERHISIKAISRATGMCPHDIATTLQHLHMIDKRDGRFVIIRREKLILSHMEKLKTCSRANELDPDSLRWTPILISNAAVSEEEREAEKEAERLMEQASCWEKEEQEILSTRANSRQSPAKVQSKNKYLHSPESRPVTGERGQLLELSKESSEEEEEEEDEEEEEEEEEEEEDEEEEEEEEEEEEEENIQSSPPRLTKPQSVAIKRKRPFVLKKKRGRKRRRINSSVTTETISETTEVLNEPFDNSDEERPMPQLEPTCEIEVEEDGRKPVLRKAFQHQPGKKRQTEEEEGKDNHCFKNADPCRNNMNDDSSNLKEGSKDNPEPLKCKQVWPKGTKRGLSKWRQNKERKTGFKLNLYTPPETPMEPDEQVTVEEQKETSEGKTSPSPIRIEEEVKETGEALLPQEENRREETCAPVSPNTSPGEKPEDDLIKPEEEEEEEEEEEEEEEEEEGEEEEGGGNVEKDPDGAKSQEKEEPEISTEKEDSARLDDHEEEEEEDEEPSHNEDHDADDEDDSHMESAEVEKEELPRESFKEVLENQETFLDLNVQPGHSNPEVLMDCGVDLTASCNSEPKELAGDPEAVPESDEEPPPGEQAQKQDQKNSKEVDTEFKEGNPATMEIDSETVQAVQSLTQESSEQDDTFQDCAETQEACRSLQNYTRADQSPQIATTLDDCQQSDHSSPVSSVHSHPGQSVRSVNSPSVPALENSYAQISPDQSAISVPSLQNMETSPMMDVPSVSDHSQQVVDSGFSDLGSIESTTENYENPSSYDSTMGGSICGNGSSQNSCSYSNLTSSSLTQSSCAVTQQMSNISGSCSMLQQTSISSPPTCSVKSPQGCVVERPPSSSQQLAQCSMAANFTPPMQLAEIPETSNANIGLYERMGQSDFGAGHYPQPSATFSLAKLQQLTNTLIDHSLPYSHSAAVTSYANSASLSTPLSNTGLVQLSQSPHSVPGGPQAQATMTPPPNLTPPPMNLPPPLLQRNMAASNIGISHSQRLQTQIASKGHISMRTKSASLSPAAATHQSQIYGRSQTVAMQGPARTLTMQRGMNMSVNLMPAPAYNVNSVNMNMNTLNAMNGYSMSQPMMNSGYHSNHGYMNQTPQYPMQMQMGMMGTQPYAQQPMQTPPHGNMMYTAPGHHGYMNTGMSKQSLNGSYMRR
Chain of KAT5 (Q92993 whole entry): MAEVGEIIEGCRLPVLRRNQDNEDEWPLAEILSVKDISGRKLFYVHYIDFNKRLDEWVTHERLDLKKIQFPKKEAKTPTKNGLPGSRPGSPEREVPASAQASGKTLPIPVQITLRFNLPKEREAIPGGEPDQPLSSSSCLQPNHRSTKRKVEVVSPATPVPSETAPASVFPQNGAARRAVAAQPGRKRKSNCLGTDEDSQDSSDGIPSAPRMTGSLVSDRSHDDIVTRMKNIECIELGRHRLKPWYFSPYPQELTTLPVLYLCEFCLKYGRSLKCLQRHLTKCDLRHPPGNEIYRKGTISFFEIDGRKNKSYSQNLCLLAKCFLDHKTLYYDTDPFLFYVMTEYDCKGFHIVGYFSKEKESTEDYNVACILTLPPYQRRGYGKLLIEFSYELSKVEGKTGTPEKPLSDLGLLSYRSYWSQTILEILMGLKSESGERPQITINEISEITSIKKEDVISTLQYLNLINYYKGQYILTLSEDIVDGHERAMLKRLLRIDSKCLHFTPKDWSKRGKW
Chain of MOZ-KAT6A (Q92794 other isoform, or with tags, fused parts or gaps): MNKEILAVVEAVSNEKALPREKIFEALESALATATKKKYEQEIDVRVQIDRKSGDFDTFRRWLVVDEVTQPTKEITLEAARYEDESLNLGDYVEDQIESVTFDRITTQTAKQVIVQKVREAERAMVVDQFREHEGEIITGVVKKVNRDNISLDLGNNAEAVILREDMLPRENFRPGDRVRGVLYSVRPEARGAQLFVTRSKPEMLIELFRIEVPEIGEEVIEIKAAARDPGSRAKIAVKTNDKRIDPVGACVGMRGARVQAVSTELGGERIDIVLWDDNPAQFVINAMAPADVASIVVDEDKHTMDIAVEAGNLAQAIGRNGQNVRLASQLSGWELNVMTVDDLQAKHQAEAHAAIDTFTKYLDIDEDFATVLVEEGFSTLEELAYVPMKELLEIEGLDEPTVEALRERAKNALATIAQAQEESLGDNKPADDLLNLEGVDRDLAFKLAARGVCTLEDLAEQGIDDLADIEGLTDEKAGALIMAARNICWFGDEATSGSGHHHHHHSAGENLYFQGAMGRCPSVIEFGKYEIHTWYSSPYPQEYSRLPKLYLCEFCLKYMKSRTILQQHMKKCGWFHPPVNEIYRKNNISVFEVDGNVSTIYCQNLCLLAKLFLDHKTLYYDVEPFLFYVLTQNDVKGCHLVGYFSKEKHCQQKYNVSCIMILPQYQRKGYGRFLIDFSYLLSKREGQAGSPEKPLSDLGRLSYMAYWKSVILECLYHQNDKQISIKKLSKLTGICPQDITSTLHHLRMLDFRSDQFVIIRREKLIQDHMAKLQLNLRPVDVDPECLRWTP
Procedure for KAT8: Prepare 10 mM stock solutions in 100% DMSO from solid material • 2. Serial dilute 10 mM, 1 mM or 0.1 mM compound stocks 3-fold in 100% DMSO for 11-point dose response
Prepare 1× assay buffer containing 10 mM Tris HCL pH 8.0, 2.5 mM NaCl, 0.5 mM EDTA, 0.005% BSG and 0.02% Tween-20 • 2. Dilute Histone peptide (CPC Scientific) and AcCoA (Sigma) together in assay buffer to 2×. • 3. Dilute KAT enzyme in assay buffer to 2×.
Enzyme reaction • 1. Final reaction conditions for each KAT assay in a 20 ul assay reaction volume: • i. KAT5 25 nM, 1 uM AcCoA, 2 uM H4 1-21 peptide, 30-minute reaction • ii. KAT6A 15 nM, 1 uM AcCoA, 2 uM H3 1-21 peptide, 45-minute reaction • iii. KAT6B 25 nM, 1 uM AcCoA, 2 uM H3 1-21 peptide, 60-minute reaction • iv. KAT7 12.5 nM, 1 uM AcCoA, 2 uM H3 1-21 peptide, 45-minute reaction • v. KAT8 15 nM, 1 uM AcCoA, 2 uM H3 1-21 peptide, 45-minute reaction • 2. Add 0.5 ul of diluted compound to the assay plate (384-well V-bottom polypropylene plates) or 0.5 ul of DMSO for control wells. • 3. Add 10 ul of 2× Histone peptide/2×AcCoA mix to the assay plate. • 4. Add 10 ul of 2× enzyme to the assay plate. • 5. Stop the reaction after the indicated time with the addition of 2 ul of 5% formic acid • 6. Each reaction was analyzed using self-assembled monolayer desorption/ionization time-of-flight mass spectrometry (Mrksich, Milan (2008) Mass Spectrometry of Self-Assembled Monolayers: A New Tool for Molecular Surface Science ACS Nano 2008 2 (1), 7-18; SAMDI Tech, Inc. (Chicago, Ill.)). • 7. Area under the curve (AUC) for both substrate and product peaks was determined for KAT5 at M.W. 2561 [Substrate+H]^+ and 2603 [Product+H]^+ with a +/−1 Da tolerance, respectively • 8. Area under the curve (AUC) for both substrate and product peaks was determined for KAT6a, KAT6B, KAT7 and KAT8 at M.W. 2723 [Substrate+H]^+ and 2765 [Product+H]^+ with a +/−1 Da tolerance, respectively. […] Percent conversion to product was calculated by: AUCProduct/(AUCsubstrate+AUCProduct).
IC50 values were determined by fitting the % conversion at each inhibitor concentration to the 4-parameter IC50 equation using Pfizer proprietary curve fitting software. • 2. Ki values were determined by fitting the % conversion at each inhibitor concentration to the Morrison equation for tightbinding competitive inhibitors using Pfizer proprietary curve fitting software.
KAT enzymes were expressed using a baculovirus expression system and purified at Pfizer, La Jolla. […] Acetyl coenzyme A was purchased from Sigma-Aldrich (St. Louis, Mo.). All other biochemical reagents were purchased from Sigma-Aldrich or ThermoFisher Scientific (Waltham, Mass.).
KAT assays were performed at room temperature in assay buffer containing 1 μM AcCoA, 2 μM histone peptide, 10 mM Tris HCL pH 8.0, 2.5 mM NaCl, 0.5 mM EDTA, 0.005% BSG and 0.02% Tween-20. 10 ul of 2× Histone peptide/AcCoA mix was added to a 384-well V-bottom polypropylene assay plate containing 0.5 ul of serially diluted test compound in 100% dimethyl sulfoxide (DMSO). To start the reaction, 10 ul of 2× enzyme solution was added to the assay plate. KAT assays were terminated after 30-60 minutes with the addition of 2 ul of 5% formic acid. All assays used histone H3 (1-21) peptide except for the KAT5 assay which used histone H4 (1-21) peptide. The final enzyme concentration for each KAT was as follows: KAT5, 25 nM; KAT6A, 15 nM; KAT6B, 25 nM; KAT7, 12.5 nM; KAT8 15 nM. Each reaction was analyzed using self-assembled monolayer desorption/ionization time-of-flight mass spectrometry (Mrksich, Milan (2008) Mass Spectrometry of Self-Assembled Monolayers: A New Tool for Molecular Surface Science ACS Nano 2008 2 (1), 7-18; SAMDI Tech, Inc. (Chicago, Ill.)).
Area under the curve (AUC) for both substrate and product peaks was determined for KAT5 at M.W. 2561 [Substrate+H]^+ and 2603 [Product+H]^+ with a +/−1 Da tolerance, respectively.

For the compound `COc1cccc(OC)c1S(=O)(=O)Nc1noc2cc(Cn3cccn3)cc(OC)c12` [Example 98, N-(6-((1H-pyrazol-1-yl)methyl)-4-methoxybenzo[d]isoxazol-3-yl)-2,6-dimethoxybenzenesulfonamide], the 50% inhibitory concentration (IC50) – broadly, the concentration at which inhibition is half-maximal – in assay [1] amounted to 0.6 nM.

For the compound `COc1cccc(OC)c1S(=O)(=O)Nc1noc2cc(Cn3cc(C)cn3)cc(OC)c12` [Example 100, 2,6-dimethoxy-N-(4-methoxy-6-((4-methyl-1H-pyrazol-1-yl)methyl)benzo[d]isoxazol-3-yl)benzenesulfonamide], the half-inhibitory concentration (IC50) came out at 340 nM on HBO1-KAT7; 15000 nM in assay [2]; 11200 nM on TIP60-KAT5; 46 nM in [1]; 1360 nM in assay [3]; 30 nM against MOZ-KAT6A. Further, the Ki (as a rule, the equilibrium dissociation constant of an inhibitor or competing ligand from its target) at KAT8 (1 μM AcCoA) was determined as 4950 nM; at KAT7 (KAT7 Ki at 1 μM AcCoA) it was 610 nM; on KAT5 (1 μM AcCoA), 6220 nM; on KAT6A (setting [4]) it was 40.3 nM; on KAT6B (1 μM AcCoA), 58.3 nM.

Take `COc1cc(Cn2cccn2)cc2onc(NS(=O)(=O)c3cccc4cc(C)cnc34)c12` [Example 99, N-(6-((1H-pyrazol-1-yl)methyl)-4-methoxybenzo[d]isoxazol-3-yl)-3-methylquinoline-8-sulfonamide]: the IC50 on HBO1-KAT7 turned out to be 120 nM; in assay [2] it was 11400 nM; at TIP60-KAT5, 980 nM; in assay [3], 1550 nM; against MOZ-KAT6A, 13 nM.

`COc1cccc(OC)c1S(=O)(=O)Nc1noc2cc(-c3cnn(C)c3)cc(OC)c12` [Example 101, 2,6-dimethoxy-N-(4-methoxy-6-(1-methyl-1H-pyrazol-4-yl)benzo[d]isoxazol-3-yl)benzenesulfonamide]: the IC50 on HBO1-KAT7 is 1550 nM; at TIP60-KAT5, 11200 nM; against MOZ-KAT6A, 1260 nM.

As to `CCc1ccc(OC)c(S(=O)(=O)Nc2noc3cc(Cn4cccn4)cc(OC)c23)c1` [Example 1, 5-ethyl-2-methoxy-N-{4-methoxy-6-[(1H-pyrazol-1-yl)methyl]-1,2-benzoxazol-3-yl}benzene-1-sulfonamide], the inhibition constant (Ki) at KAT8 (setting [5]) was 110 nM; on KAT7 (setting [6]), 50 nM; at KAT5 (setting [7]), 120 nM; on KAT6A (setting [8]), 0.55 nM; at KAT6A (setting [9]) it was 0.43 nM; on KAT6B (setting [10]) it was 1.14 nM. Besides, the inhibition constant (Ki) at KAT6B (setting [11]) turned out to be 0.68 nM.

For `COc1cc(OC)c(S(=O)(=O)Nc2noc3cc(Cn4cccn4)cc(OC)c23)c(OC)c1` [Example 14], the Ki is 420 nM on KAT8 (setting [5]); 50 nM at KAT7 (setting [6]); 270 nM at KAT5 (setting [7]); 1.12 nM on KAT6A (setting [8]); 0.49 nM at KAT6A (setting [9]); 1.05 nM on KAT6B (setting [10]).

In the case of `COc1cccc(OC)c1S(=O)(=O)Nc1noc2cc(Cn3cc(F)cn3)cc(OC)c12` [Example 7], the inhibition constant Ki on KAT8 (setting [5]) turned out to be 4460 nM; on KAT7 (setting [6]), 230 nM; on KAT5 (setting [7]), 4530 nM; on KAT6A (setting [8]), 21 nM; on KAT6B (setting [11]) it was 28.3 nM.

For `COc1ccccc1S(=O)(=O)Nc1noc2cc(Cn3cccn3)cc(OC)c12` [Example 45, 2-methoxy-N-{4-methoxy-6-[(1H-pyrazol-1-yl)methyl]-1,2-benzoxazol-3-yl}benzene-1-sulfonamide], the inhibition constant (Ki) on KAT8 (1 μM AcCoA) was determined as 900 nM; at KAT7 (KAT7 Ki at 1 μM AcCoA) it was 90 nM; on KAT5 (1 μM AcCoA), 320 nM; at KAT6A (setting [4]) it was 2.28 nM; on KAT6B (setting [10]) it was 1.55 nM; on KAT6B (KAT6b Ki at 1 μM AcCoA, 1 μM AcCoA) it was 2.11 nM.

Turning to `CCOc1ccccc1S(=O)(=O)Nc1noc2cc(Cn3cccn3)cc(OC)c12` [Example 51], the Ki was found to be 1110 nM at KAT8 (setting [5]); 90 nM on KAT7 (setting [6]); 770 nM at KAT5 (setting [7]); 2.71 nM on KAT6A (setting [8]); 1.67 nM at KAT6A (setting [9]); 4.13 nM on KAT6B (setting [10]).

For the compound `COc1cc(Br)cc(OC)c1S(=O)(=O)Nc1noc2cc(Cn3cccn3)cc(OC)c12` [Example 8], the inhibitory constant (Ki) at KAT8 (setting [5]) worked out at 2870 nM; on KAT7 (setting [6]) it was 60 nM; on KAT5 (setting [7]), 1710 nM; at KAT6A (setting [8]), 1.54 nM; at KAT6A (setting [9]), 3.23 nM; on KAT6B (setting [10]), 6.63 nM. For the same compound, the inhibition constant (Ki) at KAT6B (setting [11]) is 5.74 nM.

With `COc1cccc(OC)c1S(=O)(=O)Nc1noc2cc(Cn3cc(CO)cn3)cc(OC)c12` [Example 87, N-(6-{[4-(hydroxymethyl)-1H-pyrazol-1-yl]methyl}-4-methoxy-1,2-benzoxazol-3-yl)-2,6-dimethoxybenzene-1-sulfonamide], the inhibitory constant (Ki) on KAT8 (setting [5]) stood at 17900 nM; on KAT7 (setting [6]), 1840 nM; at KAT5 (setting [7]), 10800 nM; at KAT6A (setting [8]), 38.6 nM; on KAT6B (setting [11]), 133 nM.

For `CCc1cc(S(=O)(=O)Nc2noc3cc(Cn4cccn4)cc(OC)c23)c(OC)cc1OC` [Example 15], the Ki on KAT8 (setting [5]) came out at 170 nM; at KAT7 (setting [6]) it was 30 nM; on KAT5 (setting [7]) it was 70 nM; at KAT6A (setting [8]), 0.65 nM; at KAT6A (setting [9]), 0.35 nM; at KAT6B (setting [10]) it was 0.6 nM.

As to `COc1cccc(OC)c1S(=O)(=O)Nc1noc2c(-c3cnn(C)c3)cc(C)cc12` [Example 102, 2,6-dimethoxy-N-(5-methyl-7-(1-methyl-1H-pyrazol-4-yl)benzo[d]isoxazol-3-yl)benzenesulfonamide], the concentration for half-maximal inhibition (IC50) on HBO1-KAT7 was 1400 nM; in assay [2] it was more than 40000 nM; on TIP60-KAT5 it was more than 125000 nM; in assay [3], 28300 nM; against MOZ-KAT6A, 48800 nM.

With `COc1cc2c(cc1S(=O)(=O)Nc1noc3cc(Cn4cccn4)cc(OC)c13)CCC2` [Example 29], the Ki at KAT8 (setting [5]) was determined as 1010 nM; at KAT7 (setting [6]), 60 nM; on KAT5 (setting [7]), 180 nM; at KAT6A (setting [8]), 0.53 nM; on KAT6B (setting [10]), 1.4 nM.

Regarding `COc1ccc2c(c1S(=O)(=O)Nc1noc3cc(Cn4cccn4)cc(OC)c13)CCCC2` [Example 21], the inhibition constant (Ki) on KAT8 (setting [5]) was 830 nM; on KAT7 (setting [6]), 120 nM; on KAT5 (setting [7]), 1030 nM; at KAT6A (setting [8]), 1.23 nM; on KAT6B (setting [10]) it was 1.14 nM.
